From US11096985B2, “Antimicrobial peptides, their variants and uses” (priority 2015, dated 2021)

How the values were obtained:
Format in all cases: cell-based
[1] = system: clinical strains of Pseudomonas aeruginosa; experiment: MIC, clinical strains of P. aeruginosa; parameters: unit: μg/ml; conditions: microdilution, Muller Hinton broth-cation adjusted, 0.02% BSA, 0.2% acetic acid
Outline: (§1)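 MIC = lowest peptide concentration showing no visual growth after 20–24 h at 37° C. Range 0.125–128 μg/ml; bacteria at 5.0×10^5 cfu/ml in MH broth, polypropylene microdilution format; yeasts in potato dextrose broth.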

[2] = system: clinical strains of Acinetobacter baumannii; experiment: MIC, clinical strains of Acinetobacter baumannii; conditions: microdilution, Muller Hinton broth-cation adjusted, 0.02% BSA, 0.2% acetic acid
Protocol: (§2) Minimum inhibition concentrations (MICs) were determined against Escherichia coli (ATCC 25922), Staphylococcus aureus (ATCC 25923), Klebsiella pneumoniae (ATCC 10031) and Pseudomonas aeruginosa (ATCC 27853). Also clinical strains of E. coli, K. pneumoniae, E. cloacae, P. aeruginosa, Serratia marcescens, Proteus mirabilis, S. pneumoniae, Acinetobacter baumannii, A. johnsonii and S. aureus were used for MICs assays. Additionally, clinical strains of yeast including Candida albicans, C. glabrata, C. parapsilosis and C. quillermondiae were used. The susceptibility of these microorganisms to Chain peptides were determined using micro broth dilution assay. Colonies of the respective microorganism from Muller Hinton (MH) agar plates incubated overnight were suspended in MH broth media and final concentration of microorganism was adjusted to 5.0×10^5 cfu/ml. An aliquot of 10 μl of each Chain peptide, or gentamicin, tetracycline as reference antibiotics were added in differing concentrations along with 90 μl of bacterial suspension to 96 well polypropylene plates and incubated at 37° C. for 20 to 24 hours. Concentrations of Chain peptides and reference antibiotics ranged from 0.125 to 128 μg/ml and the MICs were recorded as the lowest concentration with no visual growth of bacteria. Similarly, antifungal MICs were tested in Potato dextrose broth.
(§3) Clinical strains of yeasts including Candida albicans, C. glabrata, C. parapsilosis and C. quillermondiae were also tested with the 12 Chain peptides. The minimum inhibitory concentration (MICs) varied between these peptides and are presented in Tables 4a, 4b, 4c and 5a, 5b, 5c. Peptides Chain 105, 201 and 308 are broad spectrum antimicrobials with MICs between 0.5-32 μg/ml against all the bacteria and yeasts tested, except Serratia marcescens and Proteus mirabilis, against which the MICs were between 64-128 μg/ml. Peptide Chain 306 has narrow spectrum activity against E.coli at 1 μg/ml and for the rest of the bacterial strains at >32 μg/ml (FIG. 10).

[3] = system: clinical strains of Acinetobacter johnsonii; conditions: Acinetobacter johnsonii clinical strain 1; microdilution, Muller Hinton broth-cation adjusted, 0.02% BSA, 0.2% acetic acid
Protocol: as §2, §3

[4] = system: clinical strains of Serratia marcescens; experiment: MIC, clinical strains of Serratia marcescens; parameters: unit: µg/mL; conditions: microdilution, Muller Hinton broth-cation adjusted, 0.02% BSA, 0.2% acetic acid
Outline: as §1

[5] = system: clinical strains of Proteus mirabilis; experiment: MIC, clinical strains of Proteus mirabilis; parameters: unit: µg/mL; conditions: microdilution, Muller Hinton broth-cation adjusted, 0.02% BSA, 0.2% acetic acid
Outline: as §1

[6] = system: clinical strains of Enterobacter cloacae; experiment: MIC, clinical strains of Enterobacter cloacae; parameters: unit: μg/ml; conditions: microdilution, Muller Hinton broth-cation adjusted, 0.02% BSA, 0.2% acetic acid
Outline: as §1

[7] = system: clinical strains of Escherichia coli; experiment: MIC, clinical strains of E. coli; parameters: unit: μg/ml; conditions: microdilution, Muller Hinton broth-cation adjusted, 0.02% BSA, 0.2% acetic acid
Outline: as §1

[8] = system: clinical strains of Klebsiella pneumoniae; experiment: MIC, clinical strains of K. pneumoniae; parameters: unit: μg/ml; conditions: microdilution, Muller Hinton broth-cation adjusted, 0.02% BSA, 0.2% acetic acid
Outline: as §1

[9] = system: clinical strains of Streptococcus pneumoniae; experiment: MIC, clinical strains of Streptococcus pneumoniae; parameters: unit: µg/mL; conditions: microdilution, Muller Hinton broth-cation adjusted, 0.02% BSA, 0.2% acetic acid
Outline: as §1

[10] = system: clinical strains of Staphylococcus aureus; experiment: MIC, clinical strains of S. aureus; parameters: unit: μg/ml; conditions: microdilution, Muller Hinton broth-cation adjusted, 0.02% BSA, 0.2% acetic acid
Outline: as §1

## Gentamicin [reference compound]
[1]; Pseudomonas aeruginosa clinical strain 1
  Minimum inhibitory concentration: 1
[1]; Pseudomonas aeruginosa clinical strain 2
  Minimum inhibitory concentration: 0.5
[1]; Pseudomonas aeruginosa clinical strain 3
  Minimum inhibitory concentration: 0.5
[1]; Pseudomonas aeruginosa clinical strain 4
  Minimum inhibitory concentration: 0.5
[1]; Pseudomonas aeruginosa clinical strain 5
  Minimum inhibitory concentration: 0.25
[2]; Acinetobacter baumannii clinical strain 1
  Minimum inhibitory concentration: 0.5
[2]; Acinetobacter baumannii clinical strain 2
  Minimum inhibitory concentration: 0.25
[2]; Acinetobacter baumannii clinical strain 3
  Minimum inhibitory concentration: 0.5
[2]; Acinetobacter baumannii clinical strain 4
  Minimum inhibitory concentration: 0.5
[2]; Acinetobacter baumannii clinical strain 5
  Minimum inhibitory concentration: 0.25
[3]
  Minimum inhibitory concentration: 0.25
[4]; Serratia marcescens clinical strain 1
  Minimum inhibitory concentration: 1
[4]; Serratia marcescens clinical strain 2
  Minimum inhibitory concentration: 2
[4]; Serratia marcescens clinical strain 3
  Minimum inhibitory concentration: 1
[4]; Serratia marcescens clinical strain 4
  Minimum inhibitory concentration: 1
[4]; Serratia marcescens clinical strain 5
  Minimum inhibitory concentration: 1
[5]; Proteus mirabilis clinical strain 1
  Minimum inhibitory concentration: 2
[5]; Proteus mirabilis clinical strain 2
  Minimum inhibitory concentration: 2
[5]; Proteus mirabilis clinical strain 3
  Minimum inhibitory concentration: >128
[5]; Proteus mirabilis clinical strain 4
  Minimum inhibitory concentration: 8
[5]; Proteus mirabilis clinical strain 5
  Minimum inhibitory concentration: >128
[6]; Enterobacter cloacae clinical strain 1
  Minimum inhibitory concentration: 0.25
[6]; Enterobacter cloacae clinical strain 2
  Minimum inhibitory concentration: 0.25
[6]; Enterobacter cloacae clinical strain 3
  Minimum inhibitory concentration: 0.25
[6]; Enterobacter cloacae clinical strain 4
  Minimum inhibitory concentration: 0.25
[6]; Enterobacter cloacae clinical strain 5
  Minimum inhibitory concentration: 0.25
[7]; Escherichia coli clinical strain 1
  Minimum inhibitory concentration: 0.5
[7]; Escherichia coli clinical strain 2
  Minimum inhibitory concentration: 0.5
[7]; Escherichia coli clinical strain 3
  Minimum inhibitory concentration: 1
[7]; Escherichia coli clinical strain 4
  Minimum inhibitory concentration: 1
[7]; Escherichia coli clinical strain 5
  Minimum inhibitory concentration: 1
[8]; Klebsiella pneumoniae clinical strain 1
  Minimum inhibitory concentration: 2
[8]; Klebsiella pneumoniae clinical strain 2
  Minimum inhibitory concentration: 0.25
[8]; Klebsiella pneumoniae clinical strain 3
  Minimum inhibitory concentration: 2
[8]; Klebsiella pneumoniae clinical strain 4
  Minimum inhibitory concentration: 2
[8]; Klebsiella pneumoniae clinical strain 5
  Minimum inhibitory concentration: 4
[9]; Streptococcus pneumoniae clinical strain 1
  Minimum inhibitory concentration: 2
[9]; Streptococcus pneumoniae clinical strain 2
  Minimum inhibitory concentration: 2
[9]; Streptococcus pneumoniae clinical strain 3
  Minimum inhibitory concentration: 2
[9]; Streptococcus pneumoniae clinical strain 4
  Minimum inhibitory concentration: 2
[9]; Streptococcus pneumoniae clinical strain 5
  Minimum inhibitory concentration: 1
[10]; Staphylococcus aureus clinical strain 1
  Minimum inhibitory concentration: 0.5
[10]; Staphylococcus aureus clinical strain 2
  Minimum inhibitory concentration: 0.5
[10]; Staphylococcus aureus clinical strain 3
  Minimum inhibitory concentration: 0.5
[10]; Staphylococcus aureus clinical strain 4
  Minimum inhibitory concentration: 0.5
[10]; Staphylococcus aureus clinical strain 5
  Minimum inhibitory concentration: 0.5
